Experimental data as given in patent US10485235B2, “Aryloxypyrimidinyl ethers as herbicides” (FMC Corporation, priority 2015, dated 2019).

Assays:
Format in all cases: in vivo
[1] = test system: ryegrass, Italian (Italian ryegrass, Lolium multiflorum); test: Test A postemergence, Italian ryegrass; conditions: postemergence, 0 to 100 scale, 0 is no effect, 100 is complete control, approximately 10 days
Outline: (§1)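 Plants grown in pots of loam blended with sand were treated either before emergence, via directed soil spray, or after emergence at the one- to two-leaf stage. Following about 10 days in the greenhouse, each treatment was visually compared with untreated controls and rated from 0 (no effect) to 100 (complete control).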

[2] = test system: galium (catchweed bedstraw, Galium aparine); test: Test A postemergence, galium; conditions: postemergence, 0 to 100 scale, 0 is no effect, 100 is complete control, approximately 10 days
Outline: as §1

[3] = test system: barnyardgrass (Echinochloa crus-galli); test: Test B flooded paddy test, barnyardgrass; conditions: 250 g ai/ha, Flood; visual rating after 13 to 15 days; scale 0 to 100, 0 is no effect, 100 is complete control
Outline: (§2)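 Seedlings at the 2-leaf stage are flooded to 3 cm and treated via the paddy water. Greenhouse plants are compared with controls after 13 to 15 days and given a 0 (no effect) to 100 (complete control) rating.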

[4] = test system: ryegrass, Italian (Italian ryegrass, Lolium multiflorum); test: Test A preemergence, Italian ryegrass; conditions: Preemergence, 0 to 100 scale (0 no effect, 100 complete control)
Outline: as §1

[5] = test system: pigweed (Amaranthus retroflexus); test: Test A postemergence, pigweed; conditions: postemergence, 0 to 100 scale, 0 is no effect, 100 is complete control, approximately 10 days
Outline: as §1

[6] = test system: ragweed (common ragweed, Ambrosia elatior); test: Test A postemergence, ragweed; conditions: postemergence, 0 to 100 scale, 0 is no effect, 100 is complete control, approximately 10 days
Outline: as §1

[7] = test system: wheat (Triticum aestivum); test: Test A postemergence, wheat; conditions: postemergence, 0 to 100 scale, 0 is no effect, 100 is complete control, approximately 10 days
Outline: as §1

[8] = test system: ducksalad (Heteranthera limosa); test: Test B flooded paddy test, ducksalad; conditions: 250 g ai/ha, Flood; visual rating after 13 to 15 days; scale 0 to 100, 0 is no effect, 100 is complete control
Outline: as §2

[9] = test system: blackgrass (Alopecurus myosuroides); test: Test A postemergence, blackgrass; conditions: postemergence, 0 to 100 scale, 0 is no effect, 100 is complete control, approximately 10 days
Outline: as §1

[10] = test system: foxtail, giant (giant foxtail, Setaria faberii); test: Test A preemergence, giant foxtail; conditions: Preemergence, 0 to 100 scale (0 no effect, 100 complete control)
Outline: as §1

[11] = test system: ragweed (common ragweed, Ambrosia elatior); test: Test A preemergence, ragweed; conditions: Preemergence, 0 to 100 scale (0 no effect, 100 complete control)
Outline: as §1

[12] = test system: pigweed (Amaranthus retroflexus); test: Test A preemergence, pigweed; conditions: Preemergence, 0 to 100 scale (0 no effect, 100 complete control)
Outline: as §1

[13] = test system: barnyardgrass (Echinochloa crus-galli); test: Test A preemergence, barnyardgrass; conditions: Preemergence, 0 to 100 scale (0 no effect, 100 complete control)
Outline: as §1

[14] = test system: corn (Zea mays); test: Test A postemergence, corn; conditions: postemergence, 0 to 100 scale, 0 is no effect, 100 is complete control, approximately 10 days
Outline: as §1

[15] = test system: kochia (Kochia scoparia); test: Test A postemergence, kochia; conditions: postemergence, 0 to 100 scale, 0 is no effect, 100 is complete control, approximately 10 days
Outline: as §1

[16] = test system: barnyardgrass (Echinochloa crus-galli); test: Test A postemergence, barnyardgrass; conditions: postemergence, 0 to 100 scale, 0 is no effect, 100 is complete control, approximately 10 days
Outline: as §1

[17] = test system: rice (Oryza sativa); test: Test B flooded paddy test, rice; conditions: 250 g ai/ha, Flood; visual rating after 13 to 15 days; scale 0 to 100, 0 is no effect, 100 is complete control
Outline: as §2

[18] = test system: kochia (Kochia scoparia); test: Test A preemergence, kochia; conditions: Preemergence, 0 to 100 scale (0 no effect, 100 complete control)
Outline: as §1

[19] = test system: foxtail, giant (giant foxtail, Setaria faberii); test: Test A postemergence, giant foxtail; conditions: postemergence, 0 to 100 scale, 0 is no effect, 100 is complete control, approximately 10 days
Outline: as §1

[20] = test system: sedge, umbrella (small-flower umbrella sedge, Cyperus difformis); test: Test B flooded paddy test, umbrella sedge; conditions: 250 g ai/ha, Flood; visual rating after 13 to 15 days; scale 0 to 100, 0 is no effect, 100 is complete control
Outline: as §2

Row | Structure (SMILES) | Plant response rating, Ryegrass, Italian ([1]; 31 g ai/ha) | Plant response rating, Ryegrass, Italian ([1]; 125 g ai/ha) | Plant response rating, Galium ([2]; 31 g ai/ha) | Plant response rating, Galium ([2]; 125 g ai/ha) | Plant response rating, Barnyardgrass [3] | Plant response rating, Ryegrass, Italian ([4]; 31 g ai/ha) | Plant response rating, Ryegrass, Italian ([4]; 125 g ai/ha) | Plant response rating, Pigweed ([5]; 31 g ai/ha) | Plant response rating, Pigweed ([5]; 125 g ai/ha) | Plant response rating, Ragweed ([6]; 31 g ai/ha) | Plant response rating, Ragweed ([6]; 125 g ai/ha) | Plant response rating, Wheat ([7]; 31 g ai/ha) | Plant response rating, Wheat ([7]; 125 g ai/ha) | Plant response rating, Ducksalad [8] | Plant response rating, Blackgrass ([9]; 31 g ai/ha) | Plant response rating, Blackgrass ([9]; 125 g ai/ha) | Plant response rating, Foxtail, Giant ([10]; 31 g ai/ha) | Plant response rating, Foxtail, Giant ([10]; 125 g ai/ha) | Plant response rating, Ragweed ([11]; 31 g ai/ha) | Plant response rating, Ragweed ([11]; 125 g ai/ha) | also measured
1 | Cc1cccc(Oc2ncc(Cl)cn2)c1OCCCF [Compound 57] | 0 | 0 | 0 | 0 | 0 | 0 | 0 | 10 | 20 | 0 | 0 | 0 | 0 | 70 | 0 | 0 | 0 | 30 | 0 | 0 | Plant response rating, Pigweed ([12]; 31 g ai/ha): 0; Plant response rating, Pigweed ([12]; 125 g ai/ha): 60; Plant response rating, Barnyardgrass ([13]; 31 g ai/ha): 0; Plant response rating, Barnyardgrass ([13]; 125 g ai/ha): 20; Plant response rating, Corn ([14]; 31 g ai/ha): 0; Plant response rating, Corn ([14]; 125 g ai/ha): 10; Plant response rating, Kochia ([15]; 31 g ai/ha): 0; Plant response rating, Kochia ([15]; 125 g ai/ha): 20; Plant response rating, Barnyardgrass ([16]; 31 g ai/ha): 0; Plant response rating, Barnyardgrass ([16]; 125 g ai/ha): 0; Plant response rating, Rice [17]: 0; Plant response rating, Kochia ([18]; 31 g ai/ha): 0; Plant response rating, Kochia ([18]; 125 g ai/ha): 20; Plant response rating, Foxtail, Giant ([19]; 31 g ai/ha): 0; Plant response rating, Foxtail, Giant ([19]; 125 g ai/ha): 10; Plant response rating, Sedge, Umbrella [20]: 30
2 | FC(F)(F)CCCOc1c(I)cccc1Oc1ncc(Cl)cn1 [Compound 60] | 0 | 70 | 70 | 100 | 20 | 0 | 90 | 90 | 90 | 0 | 30 | 0 | 20 | 100 | 30 | 50 | 90 | 90 | 0 | 0 | Plant response rating, Pigweed ([12]; 31 g ai/ha): 70; Plant response rating, Pigweed ([12]; 125 g ai/ha): 100; Plant response rating, Barnyardgrass ([13]; 31 g ai/ha): 20; Plant response rating, Barnyardgrass ([13]; 125 g ai/ha): 80; Plant response rating, Corn ([14]; 31 g ai/ha): 30; Plant response rating, Corn ([14]; 125 g ai/ha): 30; Plant response rating, Kochia ([15]; 31 g ai/ha): 90; Plant response rating, Kochia ([15]; 125 g ai/ha): 90; Plant response rating, Barnyardgrass ([16]; 31 g ai/ha): 30; Plant response rating, Barnyardgrass ([16]; 125 g ai/ha): 100; Plant response rating, Rice [17]: 25; Plant response rating, Kochia ([18]; 31 g ai/ha): 30; Plant response rating, Kochia ([18]; 125 g ai/ha): 40; Plant response rating, Foxtail, Giant ([19]; 31 g ai/ha): 30; Plant response rating, Foxtail, Giant ([19]; 125 g ai/ha): 80; Plant response rating, Sedge, Umbrella [20]: 95
3 | FC(F)(F)/C=C/COc1c(I)cccc1Oc1ncc(Cl)cn1 [Compound 61] | 0 | 0 | 20 | 50 | 20 | 0 | 0 | 80 | 90 | 0 | 0 | 0 | 0 | 100 | 0 | 0 | 0 | 80 | 0 | 0 | Plant response rating, Pigweed ([12]; 31 g ai/ha): 0; Plant response rating, Pigweed ([12]; 125 g ai/ha): 70; Plant response rating, Barnyardgrass ([13]; 31 g ai/ha): 0; Plant response rating, Barnyardgrass ([13]; 125 g ai/ha): 20; Plant response rating, Corn ([14]; 31 g ai/ha): 10; Plant response rating, Corn ([14]; 125 g ai/ha): 30; Plant response rating, Kochia ([15]; 31 g ai/ha): 40; Plant response rating, Kochia ([15]; 125 g ai/ha): 90; Plant response rating, Barnyardgrass ([16]; 31 g ai/ha): 0; Plant response rating, Barnyardgrass ([16]; 125 g ai/ha): 50; Plant response rating, Rice [17]: 25; Plant response rating, Kochia ([18]; 31 g ai/ha): 0; Plant response rating, Kochia ([18]; 125 g ai/ha): 0; Plant response rating, Foxtail, Giant ([19]; 31 g ai/ha): 0; Plant response rating, Foxtail, Giant ([19]; 125 g ai/ha): 30; Plant response rating, Sedge, Umbrella [20]: 95
